Results as given in PubChem BioAssay AID2060904 (Molecular Pharmacology Branch, DTP, NCI, 2025).

Test system: 349418-098-R-PDC complex spheroid viability
Assay: Anticancer human tumor 349418-098-R-PDC patient-derived lung adenocarcinoma cell line growth inhibition [RAS]
Details: for IC50: curve of first compound; for viability, T/C: stronger effect = lower value
How it was run: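 Tumour cells grown as complex spheroids with HUVEC endothelial cells and mesenchymal stem cells, treated with RAS pathway inhibitor combinations. Each agent spans half-log steps from near clinical Cmax, or 10 microM where Cmax is unknown.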

[1] = second compound 0.000949 µM, first compound 0.0316 µM
[2] = second compound 0.000949 µM, first compound 0.1 µM
[3] = second compound 0.000949 µM, first compound 0.316 µM
[4] = second compound 0.000949 µM, first compound 1 µM
[5] = second compound 0.000949 µM, first compound 3.16 µM
[6] = second compound 0.000949 µM, first compound 10 µM
[7] = second compound 0.003 µM, first compound 0.0316 µM
[8] = second compound 0.003 µM, first compound 0.1 µM
[9] = second compound 0.003 µM, first compound 0.316 µM
[10] = second compound 0.003 µM, first compound 1 µM
[11] = second compound 0.003 µM, first compound 3.16 µM
[12] = second compound 0.003 µM, first compound 10 µM
[13] = second compound 0.00949 µM, first compound 0.0316 µM
[14] = second compound 0.00949 µM, first compound 0.1 µM
[15] = second compound 0.00949 µM, first compound 0.316 µM
[16] = second compound 0.00949 µM, first compound 1 µM
[17] = second compound 0.00949 µM, first compound 3.16 µM
[18] = second compound 0.00949 µM, first compound 10 µM
[19] = second compound 0.03 µM, first compound 0.0316 µM
[20] = second compound 0.03 µM, first compound 0.1 µM
[21] = second compound 0.03 µM, first compound 0.316 µM
[22] = second compound 0.03 µM, first compound 1 µM
[23] = second compound 0.03 µM, first compound 3.16 µM
[24] = second compound 0.03 µM, first compound 10 µM
[25] = second compound 0.0949 µM, first compound 0.0316 µM
[26] = second compound 0.0949 µM, first compound 0.1 µM
[27] = second compound 0.0949 µM, first compound 0.316 µM
[28] = second compound 0.0949 µM, first compound 1 µM
[29] = second compound 0.0949 µM, first compound 3.16 µM
[30] = second compound 0.0949 µM, first compound 10 µM
[31] = second compound 0.3 µM, first compound 0.0316 µM
[32] = second compound 0.3 µM, first compound 0.1 µM
[33] = second compound 0.3 µM, first compound 0.316 µM
[34] = second compound 0.3 µM, first compound 1 µM
[35] = second compound 0.3 µM, first compound 3.16 µM
[36] = second compound 0.3 µM, first compound 10 µM
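Further: spheroids exposed to compound for seven days before viability readout.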

CC(C)NCC(C(=O)N1CCN(c2ncnc3c2C(C)CC3O)CC1)c1ccc(Cl)cc1 (stereo not drawn) + CCn1c(-c2cccnc2C(C)OC)c2c3cc(ccc31)N1CCOC(CC(NC(=O)C(C(C)C)N(C)C(=O)C3(F)CCN(C(=O)C#CC(C)(C)N(C)C)CC3)C(=O)N3CCCC(N3)C(=O)OCC(C)(C)C2)C1 showed an IC50 (second compound 0.000949 µM) of 603 nM, an IC50 (second compound 0.003 µM) of 357 nM and an IC50 (second compound 0.00949 µM) of 501 nM. It also gave an IC50 (second compound 0.03 µM) of 507 nM, an IC50 (second compound 0.0949 µM) of 523 nM and an IC50 (second compound 0.3 µM) of 352 nM. It also gave a viability, T/C [1] of 83.5%, a viability, T/C [2] of 88.7% and a viability, T/C [3] of 76%. It also gave a viability, T/C [4] of 29.1%, a viability, T/C [5] of 24.2% and a viability, T/C [6] of 10.7%. It also gave a viability, T/C [7] of 103%, a viability, T/C [8] of 60.9% and a viability, T/C [9] of 51.6%. The viability, T/C [10] was 48.1%, the viability, T/C [11] was 18.7% and the viability, T/C [12] was 10.2%. For the same compound, the viability, T/C [13] was 101%, the viability, T/C [14] was 85.7% and the viability, T/C [15] was 58.9%. The viability, T/C [16] was 35%, the viability, T/C [17] was 19.6% and the viability, T/C [18] was 8.77%. The viability, T/C [19] was 97.6%, the viability, T/C [20] was 86.8% and the viability, T/C [21] was 56.8%. The viability, T/C [22] was 33.3%, the viability, T/C [23] was 28.5% and the viability, T/C [24] was 8.92%. For the same compound, the viability, T/C [25] was 83.3%, the viability, T/C [26] was 75.5% and the viability, T/C [27] was 62.9%. For the same compound, the viability, T/C [28] was 32.5%, the viability, T/C [29] was 24.2% and the viability, T/C [30] was 8.81%. It also gave a viability, T/C [31] of 94.9%, a viability, T/C [32] of 76.7% and a viability, T/C [33] of 46.5%. For the same compound, the viability, T/C [34] was 34.3%, the viability, T/C [35] was 27.5% and the viability, T/C [36] was 11%.
In the case of CC(C)n1nc(-c2ccc3oc(N)nc3c2)c2c(N)ncnc21 + CCn1c(-c2cccnc2C(C)OC)c2c3cc(ccc31)N1CCOC(CC(NC(=O)C(C(C)C)N(C)C(=O)C3(F)CCN(C(=O)C#CC(C)(C)N(C)C)CC3)C(=O)N3CCCC(N3)C(=O)OCC(C)(C)C2)C1, the IC50 (second compound 0.000949 µM) is reported as 1.3 nM, the IC50 (second compound 0.003 µM) is reported as 2.1 nM and the IC50 (second compound 0.00949 µM) is reported as 2.58 nM. It also gave an IC50 (second compound 0.03 µM) of 2.86 nM, an IC50 (second compound 0.0949 µM) of 1.42 nM and an IC50 (second compound 0.3 µM) of 1.48 nM. It also gave a viability, T/C (second compound 0.000949 µM, first compound 0.000316 µM) of 97.3%, a viability, T/C (second compound 0.000949 µM, first compound 0.001 µM) of 54.3% and a viability, T/C (second compound 0.000949 µM, first compound 0.00316 µM) of 33.3%. It also gave a viability, T/C (second compound 0.000949 µM, first compound 0.01 µM) of 10.8%, a viability, T/C [1] of 6.42% and a viability, T/C [2] of 5.48%. It also gave a viability, T/C (second compound 0.003 µM, first compound 0.000316 µM) of 91.7%, a viability, T/C (second compound 0.003 µM, first compound 0.001 µM) of 70.3% and a viability, T/C (second compound 0.003 µM, first compound 0.00316 µM) of 39.7%. It also gave a viability, T/C (second compound 0.003 µM, first compound 0.01 µM) of 12.8%, a viability, T/C [7] of 6.14% and a viability, T/C [8] of 5.04%. For the same compound, the viability, T/C (second compound 0.00949 µM, first compound 0.000316 µM) was 91.2%, the viability, T/C (second compound 0.00949 µM, first compound 0.001 µM) was 82.2% and the viability, T/C (second compound 0.00949 µM, first compound 0.00316 µM) was 42.7%. The viability, T/C (second compound 0.00949 µM, first compound 0.01 µM) was 13.9%, the viability, T/C [13] was 6.63% and the viability, T/C [14] was 5.25%. It also gave a viability, T/C (second compound 0.03 µM, first compound 0.000316 µM) of 98.7%, a viability, T/C (second compound 0.03 µM, first compound 0.001 µM) of 81.4% and a viability, T/C (second compound 0.03 µM, first compound 0.00316 µM) of 47.7%. For the same compound, the viability, T/C (second compound 0.03 µM, first compound 0.01 µM) was 16.8%, the viability, T/C [19] was 6.13% and the viability, T/C [20] was 5.01%. It also gave a viability, T/C (second compound 0.0949 µM, first compound 0.000316 µM) of 90.4%, a viability, T/C (second compound 0.0949 µM, first compound 0.001 µM) of 55.9% and a viability, T/C (second compound 0.0949 µM, first compound 0.00316 µM) of 35.7%. The viability, T/C (second compound 0.0949 µM, first compound 0.01 µM) was 13.3%, the viability, T/C [25] was 7.14% and the viability, T/C [26] was 4.64%. The viability, T/C (second compound 0.3 µM, first compound 0.000316 µM) was 67.4%, the viability, T/C (second compound 0.3 µM, first compound 0.001 µM) was 64.7% and the viability, T/C (second compound 0.3 µM, first compound 0.00316 µM) was 22%. It also gave a viability, T/C (second compound 0.3 µM, first compound 0.01 µM) of 10.9%, a viability, T/C [31] of 6.85% and a viability, T/C [32] of 4.69%.
CC(Nc1ccc2c(c1)OCCn1cc(N3C(=O)OCC3C(F)F)nc1-2)C(N)=O (stereo not drawn) + CCn1c(-c2cccnc2C(C)OC)c2c3cc(ccc31)N1CCOC(CC(NC(=O)C(C(C)C)N(C)C(=O)C3(F)CCN(C(=O)C#CC(C)(C)N(C)C)CC3)C(=O)N3CCCC(N3)C(=O)OCC(C)(C)C2)C1 was tested, and the IC50 (second compound 0.000949 µM) was 36.4 nM, the IC50 (second compound 0.003 µM) was 99.4 nM and the IC50 (second compound 0.00949 µM) was 72.4 nM. For the same compound, the IC50 (second compound 0.03 µM) was 278 nM, the IC50 (second compound 0.0949 µM) was under 31.6 nM and the IC50 (second compound 0.3 µM) was 39.9 nM. For the same compound, the viability, T/C [1] was 72.9%, the viability, T/C [2] was 36.7% and the viability, T/C [3] was 17.7%. It also gave a viability, T/C [4] of 17.2%, a viability, T/C [5] of 101% and a viability, T/C [6] of 16.2%. It also gave a viability, T/C [7] of 80.3%, a viability, T/C [8] of 56.2% and a viability, T/C [9] of 30.2%. For the same compound, the viability, T/C [10] was 19.6%, the viability, T/C [11] was 99.2% and the viability, T/C [12] was 12.9%. The viability, T/C [13] was 73.4%, the viability, T/C [14] was 43.6% and the viability, T/C [15] was 25.2%. It also gave a viability, T/C [16] of 14.9%, a viability, T/C [17] of 94.2% and a viability, T/C [18] of 11.8%. The viability, T/C [19] was 67.6%, the viability, T/C [20] was 43% and the viability, T/C [21] was 32.2%. For the same compound, the viability, T/C [22] was 24.3%, the viability, T/C [23] was 112% and the viability, T/C [24] was 14.7%. For the same compound, the viability, T/C [25] was 55.9%, the viability, T/C [26] was 44.5% and the viability, T/C [27] was 25.9%. The viability, T/C [28] was 17.9%, the viability, T/C [29] was 98.1% and the viability, T/C [30] was 10.4%. For the same compound, the viability, T/C [31] was 53.7%, the viability, T/C [32] was 37.8% and the viability, T/C [33] was 21.5%. The viability, T/C [34] was 19%, the viability, T/C [35] was 65% and the viability, T/C [36] was 14.5%.
C[C@@H](NC(=O)c1ncnc(N)c1Cl)c1ncc(C(=O)Nc2cc(C(F)(F)F)c(Cl)cn2)s1 + CCn1c(-c2cccnc2C(C)OC)c2c3cc(ccc31)N1CCOC(CC(NC(=O)C(C(C)C)N(C)C(=O)C3(F)CCN(C(=O)C#CC(C)(C)N(C)C)CC3)C(=O)N3CCCC(N3)C(=O)OCC(C)(C)C2)C1 showed an IC50 (second compound 0.000949 µM) of 1280 nM, an IC50 (second compound 0.003 µM) of 1500 nM and an IC50 (second compound 0.00949 µM) of 1430 nM. The IC50 (second compound 0.03 µM) was 1580 nM, the IC50 (second compound 0.0949 µM) was 1900 nM and the IC50 (second compound 0.3 µM) was 1230 nM. For the same compound, the viability, T/C [1] was 113%, the viability, T/C [2] was 106% and the viability, T/C [3] was 90.3%. For the same compound, the viability, T/C [4] was 55.4%, the viability, T/C [5] was 29.4% and the viability, T/C [6] was 20.2%. For the same compound, the viability, T/C [7] was 117%, the viability, T/C [8] was 97.5% and the viability, T/C [9] was 88.3%. For the same compound, the viability, T/C [10] was 58.2%, the viability, T/C [11] was 32.5% and the viability, T/C [12] was 19.4%. It also gave a viability, T/C [13] of 94.7%, a viability, T/C [14] of 92.5% and a viability, T/C [15] of 73.9%. The viability, T/C [16] was 47.5%, the viability, T/C [17] was 45.1% and the viability, T/C [18] was 18.4%. It also gave a viability, T/C [19] of 114%, a viability, T/C [20] of 84.2% and a viability, T/C [21] of 82%. It also gave a viability, T/C [22] of 61.4%, a viability, T/C [23] of 33.7% and a viability, T/C [24] of 19.5%. The viability, T/C [25] was 97.2%, the viability, T/C [26] was 96.5% and the viability, T/C [27] was 89.3%. It also gave a viability, T/C [28] of 72.4%, a viability, T/C [29] of 32.5% and a viability, T/C [30] of 16.8%. It also gave a viability, T/C [31] of 107%, a viability, T/C [32] of 81.2% and a viability, T/C [33] of 66.5%. The viability, T/C [34] was 57.4%, the viability, T/C [35] was 40.9% and the viability, T/C [36] was 14.8%.
